# Results from patent US8664217B2, “Benzodiazepine compound and pharmaceutical composition” (Otsuka Pharmaceutical Co., Ltd., priority 2008, dated 2014).
# Where a name gives a salt, the structure may show the parent alone.
# Biological target: T1, human Kv1.5 channels (Homo sapiens, UniProt P22460)
# T1 construct: Full-length human Kv1.5 cDNA was cloned from a human heart cDNA library; expressed in transfected cells; host or cells: CHO-K1
# Assay: Measurement of human Kv1.5 channel current by whole-cell patch clamp method (human Kv1.5-expressing CHO-K1 cell line)
# Format: cell-based
# Conditions: human Kv1.5-expressing CHO-K1 cells, step end current at +40 mV, test compound 0.1, 1, 10 μM
# Experimental: Pharmacological Test 1 (1) Production of Human Kv1.5-Expressing CHO-K1 Cell Lines
# CHO-K1 cell lines stably expressing human Kv1.5 channels were prepared in the following manner.
# Full-length human Kv1.5 cDNA was cloned from a human heart cDNA library (produced by Stratagene). The obtained human Kv1.5 sequence corresponds to the sequence described in FASEB J. 5, 331-337 (1991).
# The obtained human Kv1.5 cDNA was inserted into a plasmid encoding a CMV promoter and a G418 resistance marker to produce a Kv1.5 expression vector. The human Kv1.5 expression vector was transfected into CHO-K1 cells by the lipofectamine method. After culturing the cells in an F-12 medium (produced by Invitrogen Corp.) containing 10% FBS (produced by Invitrogen Corp.) for 3 or 4 days, the medium was replaced with a FBS-containing F-12 medium that included 1,000 μg/ml of G418 (produced by Invitrogen Corp.), and single colonies were isolated. The amount of Kv1.5 channel expression in the single colonies was quantified at the mRNA level by RT-PCR and then quantified at the protein level by western blotting. Finally, the expressed current was analyzed by patch clamp method. Cell lines expressing a current of 200 pA or more per cell were selected as channel-expressing cell lines for activity measurement by patch clamp method.
# (3) Measurement of Ion Channel Current by Patch Clamp Method (Human Kv1.5-Expressing CHO-K1 Cell Line)
# An experiment was carried out using a patch clamp setup at room temperature (20 to 26° C.). A perfusion chamber having a diameter of 20 mm (flow rate: about 5 ml/min) was mounted on the stage of a phase-contrast inverted microscope (produced by Nikon Corporation) placed on a vibration isolated table. A poly-L-lysine (produced by Sigma)-coated coverslip (diameter: 15 mm, produced by Matsunami Glass Ind., Ltd.) on which human Kv1.5-expressing cells were cultured was placed in the perfusion chamber.
# Depolarizing stimulation pulses were applied and ionic current was recorded by using a patch clamp amplifier (EPC-7 or EPC-7 PLUS, produced by HEKA) and a personal computer (manufactured by IBM Corp.) in which software for data acquisition and analysis of ion channel current (PULSE 8.77, produced by HEKA) was installed. The current was measured in the whole-cell configuration of the patch-clamp technique. The tip (resistance: 2 to 4 MΩ) of a borosilicate glass pipette (produced by Sutter Instrument Co.) was gently placed on the cell membrane by using a three-dimensional mechanical micromanipulator (produced by Shoshin EM Corporation). […] Subsequently, stronger suction was applied to break the cell membrane. The capacitative current derived from the cell membrane was corrected using a patch clamp amplifier. Subsequently, the series resistance (Rs) between the pipette and the interior of the cell was measured and corrected.
# The composition of the extracellular solution used is shown below. Unless otherwise specified, these components were obtained from Wako Pure Chemical Industries, Ltd.
# Each test compound was prepared as a 1000-fold concentrated stock solution that was dissolved in DMSO and then diluted in the extracellular solution.
# The composition of the electrode internal solution used is shown below. Unless otherwise specified, these components were obtained from Wako Pure Chemical Industries, Ltd.
# (5) Measurement of Human Kv1.5 Current
# While the membrane potential was bolded at −80 mV, depolarizing pulses (−80 mV for 0.05 seconds→+40 mV for 0.2 seconds →−40 mV for 0.2 seconds→−80 mV for 0.05 seconds) were applied at a stimulation frequency of 1 Hz to measure Kv1.5 channel current. More specifically, first, while perfusing an extracellular solution containing 0.1% DMSO and holding the membrane potential at −80 mV, depolarizing pulses were applied. The current obtained during the pulse application was recorded as a current in the absence of the test compounds. […]
# T1 sequence (P22460 whole entry): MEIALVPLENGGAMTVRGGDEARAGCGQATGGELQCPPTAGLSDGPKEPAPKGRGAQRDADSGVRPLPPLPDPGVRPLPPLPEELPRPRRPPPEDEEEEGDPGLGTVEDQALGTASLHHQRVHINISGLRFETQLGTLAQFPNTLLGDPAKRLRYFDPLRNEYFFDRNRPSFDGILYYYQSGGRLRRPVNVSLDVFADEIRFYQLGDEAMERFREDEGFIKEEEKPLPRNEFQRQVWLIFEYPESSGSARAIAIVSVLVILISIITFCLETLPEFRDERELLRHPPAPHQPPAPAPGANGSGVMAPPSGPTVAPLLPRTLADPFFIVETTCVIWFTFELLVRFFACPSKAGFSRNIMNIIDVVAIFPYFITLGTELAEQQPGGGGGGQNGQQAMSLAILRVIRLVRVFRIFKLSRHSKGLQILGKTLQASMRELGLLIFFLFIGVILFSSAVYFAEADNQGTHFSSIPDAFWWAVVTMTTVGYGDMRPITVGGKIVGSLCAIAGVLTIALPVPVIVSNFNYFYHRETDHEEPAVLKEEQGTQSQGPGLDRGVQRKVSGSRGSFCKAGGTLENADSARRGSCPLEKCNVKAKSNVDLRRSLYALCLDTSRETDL
row,SMILES,IC50 [nM]
1,CCN1C(=O)C(C)(C)C(=O)N(C)c2cc(OCCCN(CCn3ccc4ccccc4c3=O)Cc3ccc(C#N)cc3)ccc21 [Example 85],150
2,"CCN1C(=O)C(C)(C)C(=O)N(C)c2cc(OCCCN(CCn3ccc4occc4c3=O)Cc3cccnc3)ccc21 [Example 551, 1-ethyl-3,3,5-trimethyl-7-(3-{[2-(4-oxo-4H-furo[3,2-c]pyridin-5-yl)ethyl]pyridin-3-ylmethylamino}-propoxy)-1,5-dihydrobenzo[b][1,4]diazepine-2,4-dione]",390
3,"CCN1C(=O)C(C)(C)C(=O)N(C)c2cc(OCCCN(CCc3cccnc3)S(=O)(=O)c3ccccc3)ccc21 [Example 628, N-[3-(1-ethyl-3,3,5-trimethyl-2,4-dioxo-2,3,4,5-tetrahydro-1H-benzo[b][1,4]diazepin-7-yloxy)propyl]-N-(2-pyridin-3-ylethyl)benzenesulfonamide hydrochloride]",980
4,"CCN1C(=O)C(C)(C)C(=O)N(C)c2cc(OCCCN(CCn3ccc4ccccc4c3=O)Cc3ccncc3)ccc21 [Example 23, 1-ethyl-3,3,5-trimethyl-7-(3-{[2-(1-oxo-1H-isoquinolin-2-yl)ethyl]pyridin-4-ylmethylamino}propoxy)-1,5-dihydrobenzo[b][1,4]diazepine-2,4-dione dihydrochloride]",180
5,"CCN1C(=O)C(C)(C)C(=O)N(C)c2cc(OCCCN(CCn3ccc4occc4c3=O)Cc3ccc(C)nc3C)ccc21 [Example 629, 7-(3-{(2,6-dimethylpyridin-3-ylmethyl)-[2-(4-oxo-4H-furo[3,2-c]pyridin-5-yl)ethyl]amino}propoxy)-1-ethyl-3,3,5-trimethyl-1,5-dihydrobenzo[b][1,4]diazepine-2,4-dione dihydrochloride]",760
6,"Cc1ccccc1CN(CCCOc1ccc2c(c1)N(C)C(=O)C(C)(C)C(=O)N2C)CCc1cccnc1 [Example 50, 1,3,3,5-tetramethyl-7-{3-[(2-methylbenzyl)-(2-pyridin-3-ylethyl)amino]propoxy}-1,5-dihydrobenzo[b][1,4]diazepine-2,4-dione dihydrochloride]",250
7,"CN1C(=O)C(C)(C)C(=O)N(C)c2cc(OCCCN(CCc3cccnc3)Cc3ccncc3)ccc21 [Example 19, 1,3,3,5-tetramethyl-7-{3-[(2-pyridin-3-ylethyl)pyridin-4-ylmethylamino]propoxy}-1,5-dihydrobenzo[b][1,4]diazepine-2,4-dione trihydrochloride]",540
8,"CCN1C(=O)C(C)(C)C(=O)N(C)c2cc(OCCCN(CCn3ccc4occc4c3=O)Cc3cnccc3C)ccc21 [Example 590, 1-ethyl-3,3,5-trimethyl-7-(3-{(4-methylpyridin-3-ylmethyl)-[2-(4-oxo-4H-furo[3,2-c]pyridin-5-yl)ethyl]-amino}propoxy)-1,5-dihydrobenzo[b][1,4]diazepine-2,4-dione]",460
9,CCN1C(=O)C(C)(C)C(=O)N(C)c2cc(OCCCN(CCc3cccnc3)Cc3ccccc3)ccc21 [Example 200],290
10,CCN1C(=O)C(C)(C)C(=O)N(C)c2cc(OCCCN(CCc3cccnc3)Cc3ccccc3-c3cccnc3)ccc21 [Example 242],180
11,"CN1C(=O)C(C)(C)C(=O)N(C)c2cc(OCCCN(CCc3cccnc3)Cc3ccnc4ccccc34)ccc21 [Example 51, 1,3,3,5-tetramethyl-7-{3-[(2-pyridin-3-ylethyl)-(quinolin-4-ylmethyl)amino]propoxy}-1,5-dihydrobenzo[b][1,4]diazepine-2,4-dione trihydrochloride]",210
12,"CCN1C(=O)C(C)(C)C(=O)N(C)c2cc(OCCCN(CCn3ccc4ccsc4c3=O)Cc3ccncc3)ccc21 [Example 68, 1-ethyl-3,3,5-trimethyl-7-(3-{[2-(7-oxo-7H-thieno[2,3-c]pyridin-6-yl)ethyl]pyridin-4-ylmethylamino}propoxy)-1,5-dihydrobenzo[b][1,4]diazepine-2,4-dione]",380
13,"CCN1C(=O)C(C)(C)C(=O)N(C)c2cc(OCCCN(CCc3cccnc3)Cc3ccncc3C)ccc21 [Example 54, 1-ethyl-3,3,5-trimethyl-7-{3-[(3-methylpyridin-4-ylmethyl)-(2-pyridin-3-ylethyl)amino]propoxy}-1,5-dihydrobenzo[b][1,4]diazepine-2,4-dione trihydrochloride]",280
14,"CCN1C(=O)C(C)(C)C(=O)N(C)c2cc(OCCCN(CCc3cccnc3)Cc3ccncc3)ccc21 [Example 8, 1-ethyl-3,3,5-trimethyl-7-{3-[(2-pyridin-3-ylethyl)pyridin-4-ylmethylamino]propoxy}-1,5-dihydrobenzo[b][1,4]diazepine-2,4-dione trihydrochloride]",400
15,"CCN1C(=O)C(C)(C)C(=O)N(C)c2cc(OCCCN(CCn3ccc4ccccc4c3=O)S(=O)(=O)c3ccccc3)ccc21 [Example 634, N-[3-(1-ethyl-3,3,5-trimethyl-2,4-dioxo-2,3,4,5-tetrahydro-1H-benzo[b][1,4]diazepin-7-yloxy)propyl]-N-[2-(1-oxo-1H-isoquinolin-2-yl)ethyl]benzenesulfonamide]",360
16,"CCN1C(=O)C(C)(C)C(=O)N(C)c2cc(OCCCN(CCc3cccnc3)C(=O)c3ccccc3)ccc21 [Example 633, N-[3-(1-ethyl-3,3,5-trimethyl-2,4-dioxo-2,3,4,5-tetrahydro-1H-benzo[b][1,4]diazepin-7-yloxy)propyl]-N-(2-pyridin-3-ylethyl)benzamide hydrochloride]",1100
17,CCN1C(=O)C(C)(C)C(=O)N(C)c2cc(OCCCN(CCn3ccc4ccoc4c3=O)Cc3ccc(C#N)cc3)ccc21 [Example 380],160
18,"CN(CCN(CCCOc1ccc2c(c1)N(C)C(=O)C(C)(C)C(=O)N2C)Cc1ccncc1)C(=O)c1ccccc1 [Example 45, N-methyl-N-(2-{pyridin-4-ylmethyl-[3-(1,3,3,5-tetramethyl-2,4-dioxo-2,3,4,5-tetrahydro-1H-benzo[b][1,4]diazepin-7-yloxy)propyl]amino}ethyl)benzamide dihydrochloride]",690
19,"CCN1C(=O)C(C)(C)C(=O)N(C)c2cc(OCCCN(CCn3ccc4sccc4c3=O)Cc3cccnc3C)ccc21 [Example 595, 1-ethyl-3,3,5-trimethyl-7-(3-{(2-methylpyridin-3-ylmethyl)-[2-(4-oxo-4H-thieno[3,2-c]pyridin-5-yl)ethyl]-amino}propoxy)-1,5-dihydrobenzo[b][1,4]diazepine-2,4-dione]",500
20,CCN1C(=O)C(C)(C)C(=O)N(C)c2cc(OCCCN(CCn3ccc4ccoc4c3=O)Cc3cccs3)ccc21 [Example 417],180
21,"CCN1C(=O)C(C)(C)C(=O)N(C)c2cc(OCCCN(CCn3ccc4ccoc4c3=O)Cc3ccncc3)ccc21 [Example 31, 1-ethyl-3,3,5-trimethyl-7-(3-{[2-(7-oxo-7H-furo[2,3-c]pyridin-6-yl)ethyl]pyridin-4-ylmethylamino}propoxy)-1,5-dihydrobenzo[b][1,4]diazepine-2,4-dione dihydrochloride]",1300
22,"CCN1C(=O)C(C)(C)C(=O)N(C)c2cc(OCCCN(CCn3ccc4occc4c3=O)Cc3cccnc3C)ccc21 [Example 575, 1-ethyl-3,3,5-trimethyl-7-(3-{(2-methylpyridin-3-ylmethyl)-[2-(4-oxo-4H-furo[3,2-c]pyridin-5-yl)ethyl]-amino}propoxy)-1,5-dihydrobenzo[b][1,4]diazepine-2,4-dione]",440
23,"CCN1C(=O)C(C)(C)C(=O)N(C)c2cc(OCCCN(CCn3c(=O)ccc4ccccc43)Cc3ccncc3)ccc21 [Example 63, 1-ethyl-3,3,5-trimethyl-7-(3-{[2-(2-oxo-2H-quinolin-1-yl)ethyl]pyridin-4-ylmethylamino}propoxy)-1,5-dihydrobenzo[b][1,4]diazepine-2,4-dione]",240
